Data as given in patent US20200093103A1, “BREEDING WATER FOR ANGUILLIFORMES AND METHOD FOR REARING ANGUILLIFORMES” (SHIN NIPPON BIOMEDICAL LABORATORIES, LTD., priority 2016, published 2020).

Tested on: Anguilla japonica leptocephali
Assay: Induction of Anguilla japonica metamorphosis by T4 treatment in 23° C. breeding water
Type: in vivo
Set-up: key: L: During life, no characteristics of metamorphosis seen.; Stage 1: Starting phase of metamorphosis. The rostral end is rounded, and intestinal degeneration starts.; Stage 2: Peak phase of metamorphosis. Intestinal degeneration becomes pronounced.; Stage 3: Late phase of metamorphosis.; Stage 4: Pre-glass eel stage. Almost the eel form, but the body height still remains
From the text: Stage 1: Starting phase of metamorphosis. The rostral end is rounded, and intestinal degeneration starts.
Stage 2: Peak phase of metamorphosis. Intestinal degeneration becomes pronounced. In the second half, the anus reaches to near the last vertical blood vessel (VBV last).
Stage 3: Late phase of metamorphosis. The preanal length (PAL) becomes equal to or shorter than the last vertical blood vessel length (VBV last Length) (PAL VBV last Length). The body height is apparently low.
Stage 4: Pre-glass eel stage. Almost the eel form, but the body height still remains. Melanophores on the body surface or endogenous melanophores are not yet seen.
Elver stage: Juvenile stage. Food intake can be identified.
A thyroid hormone (e.g., thyroxine (T4)) is adjusted to 50 to 100 mM in a 1- to 2-mL volume messflask. As a solvent, known solvents (water, alcohol) can be used. Ethanol is preferably used as the solvent.
For example, using ethanol as a solvent, T4 adjusted to 50 mM is diluted 500-fold, 5,000-fold, and 50,000-fold, respectively, and adjusted to […], 1 μM, and 100 nM. A feed can be prepared in this manner.
Artificial seawater is added to a breeding vessel, and 1/1000 of the […] T4 is added to prepare […] T4 breeding water.
Half of the breeding water is replaced every two days with breeding water of the same concentration. In the case where the concentration is changed, for example, in the case of changing from 10 nM to 2 nM, 80% to the breeding water is removed, and unadjusted artificial seawater is newly added to make 1 L.
Leptocephali visually considered to have reached a total length of 40 mm (or may be 30 mm to 50 mm, may be 35 mm to 45 mm, or may also be 35 mm or more, 40 mm or more, or 45 mm or more) are selected, anesthetized with 2-phenoxyethanol, and then photographed, and the total length of each larva is measured using an image analyzing device.
The larvae are placed in 10 nM T4 breeding water and then placed in an incubator set at 23° C., and breeding is started. In first one week, observation is performed every two days, and half of the 10 nM T4 breeding water is replaced each time. The average amount of thyroid hormone in the breeding water in stage 1 is 1 nM to 100 nM, for example, and may also be 3 nM to 30 nM, or 5 nM to 20 nM.
For larvae visually judged to have reached the second half of stage 2, the concentration of the breeding water is changed. The breeding water is diluted 5-fold or 10-fold and adjusted to 2 nM or 1 nM T4, and breeding is continued. The average amount of thyroid hormone in the breeding water in stage 2 may be, as compared with the breeding water of stage 1, diluted 2-fold to 20-fold, diluted 3 to 15-fold, or diluted 5 to 10-fold as described above. The average amount of thyroid hormone in the breeding water in stage 2 is 0.1 nM to 20 nM, for example, and may also be 0.5 nM to 10 nM, 1 nM to 5 nM, or 1 nM to 2 nM.
For larvae visually judged to have reached stage 3, the breeding water is quickly changed 0.2 nM T4 breeding water, which is a 5-fold dilution of 1 nM T4 breeding water, and further changed to 0.1 nM T4 breeding water on the following day. […] Also, in larvae whose anus position has not reached the last vertical hemal spine, when they are judged to be on the brink of stage 3, the concentration is changed as above. The average amount of thyroid hormone in the breeding water in stage 3 may be, as compared with the breeding water of stage 2, diluted 2-fold to 50-fold, diluted 3 to 15-fold, diluted 4 to 6-fold, or diluted 5-fold as described above. The average amount of thyroid hormone in the breeding water in stage 3 is 0.01 nM to 2 nM, for example, and may also be 0.05 nM to 1 nM, 0.1 nM to 0.5 nM, or 0.1 nM to 0.2 nM. […] That is, the concentration may be changed such that the thyroid hormone becomes undetectable in the breeding water in the course of stage 3.
In stage 3, breeding is continuously performed in the 0.1 nM T4 breeding water. […]

SMILES: N[C@@H](Cc1cc(I)c(Oc2cc(I)c(O)c(I)c2)c(I)c1)C(=O)O [T4, thyroxine]
- metamorphosis stage (individual Exp. 5-6, 174 days old, total length 34.5 mm at start, c3 onward = treatment days 1,3,5,7,8,9,10,11,12,13,14,15,16,17,18,20,22, T4 (nM) 10,10,10,10,10,10,10,2,1,1,0.2,0.1,0.1,0.1,0.1,0.1,0.1, treatment day 11, T4 2 nM): 2
- metamorphosis stage (individual Exp. 5-6, 174 days old, total length 34.5 mm at start, c3 onward = treatment days 1,3,5,7,8,9,10,11,12,13,14,15,16,17,18,20,22, T4 (nM) 10,10,10,10,10,10,10,2,1,1,0.2,0.1,0.1,0.1,0.1,0.1,0.1, treatment day 12, T4 1 nM): 2
- metamorphosis stage (individual Exp. 5-6, 174 days old, total length 34.5 mm at start, c3 onward = treatment days 1,3,5,7,8,9,10,11,12,13,14,15,16,17,18,20,22, T4 (nM) 10,10,10,10,10,10,10,2,1,1,0.2,0.1,0.1,0.1,0.1,0.1,0.1, treatment day 13, T4 1 nM): 2
- metamorphosis stage (individual Exp. 5-6, 174 days old, total length 34.5 mm at start, c3 onward = treatment days 1,3,5,7,8,9,10,11,12,13,14,15,16,17,18,20,22, T4 (nM) 10,10,10,10,10,10,10,2,1,1,0.2,0.1,0.1,0.1,0.1,0.1,0.1, treatment day 14, T4 0.2 nM): 3
- metamorphosis stage (individual Exp. 5-6, 174 days old, total length 34.5 mm at start, c3 onward = treatment days 1,3,5,7,8,9,10,11,12,13,14,15,16,17,18,20,22, T4 (nM) 10,10,10,10,10,10,10,2,1,1,0.2,0.1,0.1,0.1,0.1,0.1,0.1, treatment day 15, T4 0.1 nM): 3
- metamorphosis stage (individual Exp. 5-6, 174 days old, total length 34.5 mm at start, c3 onward = treatment days 1,3,5,7,8,9,10,11,12,13,14,15,16,17,18,20,22, T4 (nM) 10,10,10,10,10,10,10,2,1,1,0.2,0.1,0.1,0.1,0.1,0.1,0.1, treatment day 16, T4 0.1 nM): 3
- metamorphosis stage (individual Exp. 5-6, 174 days old, total length 34.5 mm at start, c3 onward = treatment days 1,3,5,7,8,9,10,11,12,13,14,15,16,17,18,20,22, T4 (nM) 10,10,10,10,10,10,10,2,1,1,0.2,0.1,0.1,0.1,0.1,0.1,0.1, treatment day 17, T4 0.1 nM): 3
- metamorphosis stage (individual Exp. 5-6, 174 days old, total length 34.5 mm at start, c3 onward = treatment days 1,3,5,7,8,9,10,11,12,13,14,15,16,17,18,20,22, T4 (nM) 10,10,10,10,10,10,10,2,1,1,0.2,0.1,0.1,0.1,0.1,0.1,0.1, treatment day 18, T4 0.1 nM): 3
- metamorphosis stage (individual Exp. 5-6, 174 days old, total length 34.5 mm at start, c3 onward = treatment days 1,3,5,7,8,9,10,11,12,13,14,15,16,17,18,20,22, T4 (nM) 10,10,10,10,10,10,10,2,1,1,0.2,0.1,0.1,0.1,0.1,0.1,0.1, treatment day 20, T4 0.1 nM): 3
- metamorphosis stage (individual Exp. 5-6, 174 days old, total length 34.5 mm at start, c3 onward = treatment days 1,3,5,7,8,9,10,11,12,13,14,15,16,17,18,20,22, T4 (nM) 10,10,10,10,10,10,10,2,1,1,0.2,0.1,0.1,0.1,0.1,0.1,0.1, treatment day 22, T4 0.1 nM): 4
- metamorphosis stage (individual Exp. 6-1, 129 days old, total length 40.6 mm at start, c3 onward = treatment days 1,3,5,7,9,10,11,12,13,14,15,16,17,18,19, T4 (nM) 10,10,10,10,2,1,0.2,0.1,0.1,0.1,0.1,0.1,0.1,0.1,0.1, treatment day 1): L
- metamorphosis stage (individual Exp. 6-1, 129 days old, total length 40.6 mm at start, c3 onward = treatment days 1,3,5,7,9,10,11,12,13,14,15,16,17,18,19, T4 (nM) 10,10,10,10,2,1,0.2,0.1,0.1,0.1,0.1,0.1,0.1,0.1,0.1, treatment day 3): 1
- metamorphosis stage (individual Exp. 6-1, 129 days old, total length 40.6 mm at start, c3 onward = treatment days 1,3,5,7,9,10,11,12,13,14,15,16,17,18,19, T4 (nM) 10,10,10,10,2,1,0.2,0.1,0.1,0.1,0.1,0.1,0.1,0.1,0.1, treatment day 5): 1
- metamorphosis stage (individual Exp. 6-1, 129 days old, total length 40.6 mm at start, c3 onward = treatment days 1,3,5,7,9,10,11,12,13,14,15,16,17,18,19, T4 (nM) 10,10,10,10,2,1,0.2,0.1,0.1,0.1,0.1,0.1,0.1,0.1,0.1, treatment day 7): 2
- metamorphosis stage (individual Exp. 6-1, 129 days old, total length 40.6 mm at start, c3 onward = treatment days 1,3,5,7,9,10,11,12,13,14,15,16,17,18,19, T4 (nM) 10,10,10,10,2,1,0.2,0.1,0.1,0.1,0.1,0.1,0.1,0.1,0.1, treatment day 9): 2
- metamorphosis stage (individual Exp. 6-1, 129 days old, total length 40.6 mm at start, c3 onward = treatment days 1,3,5,7,9,10,11,12,13,14,15,16,17,18,19, T4 (nM) 10,10,10,10,2,1,0.2,0.1,0.1,0.1,0.1,0.1,0.1,0.1,0.1, treatment day 10): 2
- metamorphosis stage (individual Exp. 6-1, 129 days old, total length 40.6 mm at start, c3 onward = treatment days 1,3,5,7,9,10,11,12,13,14,15,16,17,18,19, T4 (nM) 10,10,10,10,2,1,0.2,0.1,0.1,0.1,0.1,0.1,0.1,0.1,0.1, treatment day 11): 3
- metamorphosis stage (individual Exp. 6-1, 129 days old, total length 40.6 mm at start, c3 onward = treatment days 1,3,5,7,9,10,11,12,13,14,15,16,17,18,19, T4 (nM) 10,10,10,10,2,1,0.2,0.1,0.1,0.1,0.1,0.1,0.1,0.1,0.1, treatment day 12): 3
- metamorphosis stage (individual Exp. 6-1, 129 days old, total length 40.6 mm at start, c3 onward = treatment days 1,3,5,7,9,10,11,12,13,14,15,16,17,18,19, T4 (nM) 10,10,10,10,2,1,0.2,0.1,0.1,0.1,0.1,0.1,0.1,0.1,0.1, treatment day 13): 3
- metamorphosis stage (individual Exp. 6-1, 129 days old, total length 40.6 mm at start, c3 onward = treatment days 1,3,5,7,9,10,11,12,13,14,15,16,17,18,19, T4 (nM) 10,10,10,10,2,1,0.2,0.1,0.1,0.1,0.1,0.1,0.1,0.1,0.1, treatment day 14): 3
- metamorphosis stage (individual Exp. 6-1, 129 days old, total length 40.6 mm at start, c3 onward = treatment days 1,3,5,7,9,10,11,12,13,14,15,16,17,18,19, T4 (nM) 10,10,10,10,2,1,0.2,0.1,0.1,0.1,0.1,0.1,0.1,0.1,0.1, treatment day 15): 3
- metamorphosis stage (individual Exp. 6-1, 129 days old, total length 40.6 mm at start, c3 onward = treatment days 1,3,5,7,9,10,11,12,13,14,15,16,17,18,19, T4 (nM) 10,10,10,10,2,1,0.2,0.1,0.1,0.1,0.1,0.1,0.1,0.1,0.1, treatment day 16): 3
- metamorphosis stage (individual Exp. 6-1, 129 days old, total length 40.6 mm at start, c3 onward = treatment days 1,3,5,7,9,10,11,12,13,14,15,16,17,18,19, T4 (nM) 10,10,10,10,2,1,0.2,0.1,0.1,0.1,0.1,0.1,0.1,0.1,0.1, treatment day 17): 3
- metamorphosis stage (individual Exp. 6-1, 129 days old, total length 40.6 mm at start, c3 onward = treatment days 1,3,5,7,9,10,11,12,13,14,15,16,17,18,19, T4 (nM) 10,10,10,10,2,1,0.2,0.1,0.1,0.1,0.1,0.1,0.1,0.1,0.1, treatment day 18): 3
- metamorphosis stage (individual Exp. 6-1, 129 days old, total length 40.6 mm at start, c3 onward = treatment days 1,3,5,7,9,10,11,12,13,14,15,16,17,18,19, T4 (nM) 10,10,10,10,2,1,0.2,0.1,0.1,0.1,0.1,0.1,0.1,0.1,0.1, treatment day 19): 4
